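Values below derive from 48-hour exposures of cells grown in 96-well plates, with endpoints linearly interpolated between the two concentrations bracketing the appropriate inhibition level. The concentration for 50% growth inhibition is given as GI50. TGI: concentration producing complete growth inhibition.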
Experiments:
Assay in all cases: NCI anticancer screen, dose series, 48 h
[1] = tested on: 786-0 renal
[2] = tested on: A498 renal
[3] = tested on: A549 NSCLC
[4] = tested on: ACHN renal
[5] = tested on: BT-549 breast
[6] = tested on: CAKI-1 renal
[7] = tested on: CCRF-CEM leukemia
[8] = tested on: COLO 205 colon
[9] = tested on: DU-145 prostate
[10] = tested on: EKVX NSCLC
[11] = tested on: HCC-2998 colon
[12] = tested on: HCT-116 colon
[13] = tested on: HCT-15 colon
[14] = tested on: HL-60(TB) leukemia
[15] = tested on: HOP-62 NSCLC
[16] = tested on: HOP-92 NSCLC
[17] = tested on: HS 578T breast
[18] = tested on: HT29 colon
[19] = tested on: IGROV1 ovarian
[20] = tested on: K-562 leukemia
[21] = tested on: KM12 colon
[22] = tested on: LOX IMVI melanoma
[23] = tested on: M14 melanoma
[24] = tested on: MALME-3M melanoma
[25] = tested on: MCF7 breast
[26] = tested on: MDA-MB-231 breast
[27] = tested on: MDA-MB-435
[28] = tested on: MOLT-4 leukemia
[29] = tested on: NCI-H226 lung
[30] = tested on: NCI-H460 lung
[31] = tested on: NCI-H522 lung
[32] = tested on: NCI/ADR-RES ovarian
[33] = tested on: OVCAR-3 ovarian
[34] = tested on: OVCAR-4 ovarian
[35] = tested on: OVCAR-5 ovarian
[36] = tested on: OVCAR-8 ovarian
[37] = tested on: PC-3 prostate
[38] = tested on: RPMI-8226 leukemia
[39] = tested on: RXF 393 renal
[40] = tested on: SF-268 CNS
[41] = tested on: SF-295 CNS
[42] = tested on: SF-539 CNS
[43] = tested on: SK-MEL-2 melanoma
[44] = tested on: SK-MEL-28 melanoma
[45] = tested on: SK-MEL-5 melanoma
[46] = tested on: SK-OV-3 ovarian
[47] = tested on: SN12C renal
[48] = tested on: SNB-19 CNS
[49] = tested on: SNB-75 CNS
[50] = tested on: SR leukemia
[51] = tested on: SW-620 colon
[52] = tested on: T-47D breast
[53] = tested on: TK-10 renal
[54] = tested on: U251 CNS
[55] = tested on: UACC-257 melanoma
[56] = tested on: UACC-62 melanoma
[57] = tested on: UO-31 renal

Question: What does the source list for N#Cc1c(-n2c(Br)c(Br)c3cc(Br)ccc32)[nH]c2c(Br)cc(Br)cc12?
Answer: GI50 [1]: 1580 nM; TGI [1]: 8780 nM; GI50 [2]: 767 nM; TGI [2]: 2400 nM; GI50 [3]: 1730 nM; TGI [3]: > 50000 nM; GI50 [4]: 3230 nM; TGI [4]: > 50000 nM; GI50 [5]: 1160 nM; TGI [5]: 2640 nM; GI50 [6]: 1550 nM; TGI [6]: 9730 nM; GI50 [7]: 1380 nM; TGI [7]: > 18200 nM; GI50 [8]: 1100 nM; TGI [8]: 3090 nM; GI50 [9]: 2250 nM; TGI [9]: > 50000 nM; GI50 [10]: 2040 nM; TGI [10]: > 50000 nM; GI50 [11]: 1320 nM; TGI [11]: 15700 nM; GI50 [12]: 986 nM; TGI [12]: 2990 nM; GI50 [13]: 938 nM; TGI [13]: > 18300 nM; GI50 [14]: 1240 nM; TGI [14]: 2950 nM; GI50 [15]: 1380 nM; TGI [15]: 4140 nM; GI50 [16]: 383 nM; TGI [16]: 1900 nM; GI50 [17]: 1060 nM; TGI [17]: 3560 nM; GI50 [18]: 1480 nM; TGI [18]: 5230 nM; GI50 [19]: 2140 nM; TGI [19]: > 50000 nM; GI50 [20]: 735 nM; TGI [20]: > 50000 nM; GI50 [21]: 1450 nM; TGI [21]: 6410 nM; GI50 [22]: 5740 nM; TGI [22]: 15700 nM; GI50 [23]: 1490 nM; TGI [23]: 7600 nM; GI50 [24]: 1680 nM; TGI [24]: 7210 nM; GI50 [25]: 1160 nM; TGI [25]: 7110 nM; GI50 [26]: 1450 nM; TGI [26]: > 20600 nM; GI50 [27]: 2020 nM; TGI [27]: 9380 nM; GI50 [28]: 1310 nM; TGI [28]: 4090 nM; GI50 [29]: 1140 nM; TGI [29]: 3200 nM; GI50 [30]: 1480 nM; TGI [30]: 6030 nM; GI50 [31]: 788 nM; TGI [31]: 2560 nM; GI50 [32]: 1200 nM; TGI [32]: 3630 nM; GI50 [33]: 1940 nM; TGI [33]: > 50000 nM; GI50 [34]: 1570 nM; TGI [34]: > 50000 nM; GI50 [35]: 2950 nM; TGI [35]: > 50000 nM; GI50 [36]: 1660 nM; TGI [36]: > 29400 nM; GI50 [37]: 982 nM; TGI [37]: 3990 nM; GI50 [38]: 859 nM; TGI [38]: 2560 nM; GI50 [39]: 904 nM; TGI [39]: 3480 nM; GI50 [40]: 1500 nM; TGI [40]: > 50000 nM; GI50 [41]: 878 nM; TGI [41]: 2000 nM; GI50 [42]: 1470 nM; TGI [42]: > 39600 nM; GI50 [43]: 882 nM; TGI [43]: 1910 nM; GI50 [44]: 1490 nM; TGI [44]: 8530 nM; GI50 [45]: 907 nM; TGI [45]: 1910 nM; GI50 [46]: 1410 nM; TGI [46]: 4180 nM; GI50 [47]: 1270 nM; TGI [47]: > 17900 nM; GI50 [48]: 1340 nM; TGI [48]: > 50000 nM; GI50 [49]: 954 nM; TGI [49]: 3790 nM; GI50 [50]: 1220 nM; TGI [50]: 6120 nM; GI50 [51]: 1590 nM; TGI [51]: > 50000 nM; GI50 [52]: 1090 nM; TGI [52]: 6480 nM; GI50 [53]: 1590 nM; TGI [53]: 4540 nM; GI50 [54]: 1190 nM; TGI [54]: > 31400 nM; GI50 [55]: 1380 nM; TGI [55]: 5740 nM; GI50 [56]: 1140 nM; TGI [56]: 3210 nM; GI50 [57]: 5450 nM; TGI [57]: 16100 nM

Reference: PubChem BioAssay (NCI)
